Results taken from patent publication US20230322846A9, “NEUROACTIVE STEROIDS AND THEIR METHODS OF USE” (SAGE THERAPEUTICS, INC., priority 2018, published 2023).

The molecules below were run against [35S]-TBPS binding, rat brain cortical membranes (assay: Steroid inhibition of [35S]-TBPS binding). Settings: 3 nM [35S]-TBPS, in the presence of 5 mM GABA.
Description: [^35S]-t-Butylbicyclophosphorothionate (TBPS) binding assays using rat brain cortical membranes in the presence of 5 mM GABA has been described (Gee et al, J. Pharmacol. Exp. Ther. 1987, 241, 346-353; Hawkinson et al, Mol. Pharmacol. 1994, 46, 977-985; Lewin, A. H et al., Mol. Pharmacol. 1989, 35, 189-194).
Briefly, cortices are rapidly removed following decapitation of carbon dioxide-anesthetized Sprague-Dawley rats (200-250 g). The cortices are homogenized in 10 volumes of ice-cold 0.32 M sucrose using a glass/teflon homogenizer and centrifuged at 1500×g for 10 min at 4° C. The resultant supernatants are centrifuged at 10,000×g for 20 min at 4° C. to obtain the P2 pellets. The P2 pellets are resuspended in 200 mM NaCl/50 mM Na—K phosphate pH 7.4 buffer and centrifuged at 10,000×g for 10 min at 4° C. This washing procedure is repeated twice and the pellets are resuspended in 10 volumes of buffer. Aliquots ([…]) of the membrane suspensions are incubated with 3 nM [^35S]-TBPS and […] aliquots of test drug dissolved in dimethyl sulfoxide (DMSO) (final 0.5%) in the presence of 5 mM GABA. The incubation is brought to a final volume of 1.0 mL with buffer. Nonspecific binding is determined in the presence of […] and ranged from 15 to 25%. Following a 90 min incubation at room temp, the assays are terminated by filtration through glass fiber filters (Schleicher and Schuell No. 32) using a cell harvester (Brandel) and rinsed three times with ice-cold buffer. Filter bound radioactivity is measured by liquid scintillation spectrometry. Non-linear curve fitting of the overall data for each drug averaged for each concentration is done using Prism (GraphPad). […] The concentration of test compound producing 50% inhibition (IC50) of specific binding and the maximal extent of inhibition (Imax) are determined for the individual experiments with the same model used for the overall data and then the means±SEM.s of the individual experiments are calculated.
Various compounds are or can be screened to determine their potential as modulators of [^35S]-TBPS binding in vitro. These assays are or can be performed in accordance with the above

First: C[C@H]([C@H]1CC[C@H]2[C@@H]3CC[C@@H]4C[C@](C)(O)CC[C@@H]4[C@H]3CC[C@]12C)n1nccn1 [Example 158, (3R,5R,8R,9R,10S,13S,14S,17S)-17-((R)-1-(2H-1,2,3-triazol-2-yl)ethyl)-3,13-dimethylhexadecahydro-1H-cyclopenta[a]phenanthren-3-ol]
Second: C[C@H](Cn1nccn1)[C@H]1CC[C@H]2[C@@H]3CC[C@H]4C[C@](C)(O)CC[C@@H]4[C@H]3CC[C@]12C [Example 58, (3R,5S,8R,9R,10S,13S,14S,17R)-17-((S)-1-(2H-1,2,3-triazol-2-yl)propan-2-yl)-3,13-dimethylhexadecahydro-1H-cyclopenta[a]phenanthren-3-ol]
The IC50 of the first is lower: 100 to 1000 nM for the first, 1000 to 10000 nM for the second. The first is the more potent here.

C[C@H](Nc1cccnc1)[C@H]1CC[C@H]2[C@@H]3CC[C@@H]4C[C@](C)(O)CC[C@@H]4[C@H]3CC[C@]12C [Example 204] and C[C@@H](N[C@H](C)[C@H]1CC[C@H]2[C@@H]3CC[C@@H]4C[C@](C)(O)CC[C@@H]4[C@H]3CC[C@]12C)c1ccccc1 [Example 208] fall in the same range of IC50: 100 to 1000 nM for the first, 100 to 1000 nM for the second.

First: C[C@@H](NS(=O)(=O)c1ccccc1)[C@H]1CC[C@H]2[C@@H]3CC[C@@H]4C[C@](C)(O)CC[C@@H]4[C@H]3CC[C@]12C [Example 18, N—((R)-1-((3R,5R,8R,9R,10S,13S,14S,17S)-3-hydroxy-3,13-dimethylhexadecahydro-1H-cyclopenta[a]phenanthren-17-yl)ethyl)benzenesulfonamide]
Second: C[C@H]([C@H]1CC[C@H]2[C@@H]3CC[C@@H]4C[C@](C)(O)CC[C@@H]4[C@H]3CC[C@]12C)N(C)C(=O)c1ccccc1 [Example 20, N-((1R)-1-((3R,5R,9R,10S,13S,14S,17S)-3-hydroxy-3,13-dimethylhexadecahydro-1H-cyclopenta[a]phenanthren-17-yl)ethyl)-N-methylbenzamide]
The IC50 of the first is lower: less than 100 nM for the first, 100 to 1000 nM for the second. The first is the more potent here.

C[C@@]1(O)CC[C@H]2[C@H](CC[C@@H]3[C@@H]2CC[C@]2(C)[C@@H]([C@@H](C#N)Cn4cc(C#N)cn4)CC[C@@H]32)C1 [Example 356, 1-((R)-2-cyano-2-((3R,5R,8R,9R,10S,13S,14S,17R)-3-hydroxy-3,13-dimethylhexadecahydro-1H-cyclopenta[a]phenanthren-17-yl)ethyl)-1H-pyrazole-4-carbonitrile] and CC[C@@]1(O)CC[C@H]2[C@H](CC[C@@H]3[C@@H]2CC[C@]2(C)[C@@H]([C@@H](C)Cn4cc(C#N)cn4)CC[C@@H]32)C1 [Example 275, 1-((R)-2-((3R,5R,8R,9R,10S,13S,14S,17R)-3-ethyl-3-hydroxy-13-methylhexadecahydro-1H-cyclopenta[a]phenanthren-17-yl)propyl)-1H-pyrazole-4-carbonitrile] cannot be ordered by IC50: less than 100 nM for the first, less than 100 nM for the second.

COC[C@@]1(O)CC[C@H]2[C@@H](CC[C@@H]3[C@@H]2CC[C@]2(C)[C@@H]([C@@H](C)Cn4nnnc4C)CC[C@@H]32)C1 [Example 55, (3R,5S,8R,9R,10S,13S,14S,17R)-3-(methoxymethyl)-13-methyl-17-((R)-1-(5-methyl-1H-tetrazol-1-yl)propan-2-yl)hexadecahydro-1H-cyclopenta[a]phenanthren-3-ol] and COC[C@@]1(O)CC[C@H]2[C@H](CC[C@@H]3[C@@H]2CC[C@]2(C)[C@@H]([C@@H](C)Cc4ccc(C#N)nc4)CC[C@@H]32)C1 [Example 404, 5-((S)-2-((3R,5R,8R,9R,10S,13R,14S,17R)-3-hydroxy-3-(methoxymethyl)-13-methylhexadecahydro-1H-cyclopenta[a]phenanthren-17-yl)propyl)picolinonitrile] cannot be ordered by IC50: less than 100 nM for the first, less than 100 nM for the second.

Compared with CCOC[C@@]1(O)CC[C@H]2[C@H](CC[C@@H]3[C@@H]2CC[C@]2(C)[C@@H]([C@H](CC)Cn4nccc4C#N)CC[C@@H]32)C1 [Example 501, 1-((S)-2-((3R,5R,8R,9R,10S,13S,14S,17R)-3-(ethoxymethyl)-3-hydroxy-13-methylhexadecahydro-1H-cyclopenta[a]phenanthren-17-yl)butyl)-1H-pyrazole-5-carbonitrile], CCC[C@@]1(O)CC[C@H]2[C@@H](CC[C@@H]3[C@@H]2CC[C@]2(C)[C@@H]([C@@H](C)Cn4cc(C#N)cn4)CC[C@@H]32)C1 [Example 349, 1-((R)-2-((3R,5S,8R,9R,10S,13S,14S,17R)-3-hydroxy-13-methyl-3-propylhexadecahydro-1H-cyclopenta[a]phenanthren-17-yl)propyl)-1H-pyrazole-4-carbonitrile] is higher in IC50: 100 to 1000 nM for the first, no less than 10000 nM for the second.

First: COC[C@@]1(O)CC[C@H]2[C@@H](CC[C@@H]3[C@@H]2CC[C@]2(C)[C@@H](CCn4ccnn4)CC[C@@H]32)C1 [Example 298, (3R,5S,8R,9R,10S,13R,14S,17R)-17-(2-(1H-1,2,3-triazol-1-yl)ethyl)-3-(methoxymethyl)-13-methylhexadecahydro-1H-cyclopenta[a]phenanthren-3-ol]
Second: COC[C@@]1(O)CC[C@H]2[C@H](CC[C@@H]3[C@@H]2CC[C@]2(C)[C@@H]([C@H](C)Nc4cccc(C#N)c4)CC[C@@H]32)C1 [Example 255]
The IC50 of the first is lower: less than 100 nM for the first, 1000 to 10000 nM for the second. The first is the more potent here.

First: C[C@@]1(O)CC[C@H]2[C@H](CC[C@@H]3[C@@H]2CC[C@]2(C)[C@@H](CC(=O)Nc4ccccc4)CC[C@@H]32)C1 [Example 76, 2-((3R,5R,8R,9R,10S,13R,14S,17R)-3-hydroxy-3,13-dimethylhexadecahydro-1H-cyclopenta[a]phenanthren-17-yl)-N-phenylacetamide]
Second: C[C@@]1(O)CC[C@H]2[C@H](CC[C@@H]3[C@@H]2CC[C@]2(C)[C@@H](CNC(=O)c4ccccc4)CC[C@@H]32)C1 [Example 3, N-(((3R,5R,8R,9R,10S,13S,14S,17S)-3-hydroxy-3,13-dimethylhexadecahydro-1H-cyclopenta[a]phenanthren-17-yl)methyl)benzamide]
The IC50 of the first is higher: 100 to 1000 nM for the first, less than 100 nM for the second.

Compared with CCOC(=O)c1cnc(C[C@@H](C)[C@H]2CC[C@H]3[C@@H]4CC[C@@H]5C[C@](C)(O)CC[C@@H]5[C@H]4CC[C@]23C)o1 (stereo in doubt) [Example 456], CCC[C@@]1(O)CC[C@H]2[C@H](CC[C@@H]3[C@@H]2CC[C@]2(C)[C@@H]([C@H](C)Cc4cnc(C)cn4)CC[C@@H]32)C1 [Example 418] is higher in IC50: 100 to 1000 nM for the first, 1000 to 10000 nM for the second. The first is the more potent here.

Compared with CCC[C@@]1(O)CC[C@H]2[C@H](CC[C@@H]3[C@@H]2CC[C@]2(C)[C@@H]([C@@H](C)Cn4cc(C#N)cn4)[C@H](O)C[C@@H]32)C1 [Example 362, 1-((R)-2-((3R,5R,8R,9R,10S,13S,14S,16R,17R)-3,16-dihydroxy-13-methyl-3-propylhexadecahydro-1H-cyclopenta[a]phenanthren-17-yl)propyl)-1H-pyrazole-4-carbonitrile], C[C@H](Cn1cc(C#N)cn1)[C@H]1CC[C@H]2[C@@H]3CC[C@@H]4C[C@](C)(O)CC[C@]4(C)[C@H]3CC[C@]12C [Example 306, 1-((S)-2-((3R,5R,8R,9S,10S,13S,14S,17R)-3-hydroxy-3,10,13-trimethylhexadecahydro-1H-cyclopenta[a]phenanthren-17-yl)propyl)-1H-pyrazole-4-carbonitrile] is lower in IC50: 1000 to 10000 nM for the first, less than 100 nM for the second.

First: C[C@H](NC(=O)c1ccccc1F)[C@H]1CC[C@H]2[C@@H]3CC[C@@H]4C[C@](C)(O)CC[C@@H]4[C@H]3CC[C@]12C [Example 102]
Second: C[C@@H](NC(=O)c1ccc(C#N)cc1)[C@H]1CC[C@H]2[C@@H]3CC[C@@H]4C[C@](C)(O)CC[C@@H]4[C@H]3CC[C@]12C [Example 108]
The IC50 of the first is higher: 1000 to 10000 nM for the first, 100 to 1000 nM for the second.

First: CCOC[C@@]1(O)CC[C@@]2(C)[C@H](CC[C@@H]3[C@@H]2CC[C@]2(C)[C@@H]([C@@H](C)N[C@@H](C)c4ccccc4)CC[C@@H]32)C1 [Example 211]
Second: CCOC[C@@]1(O)CC[C@H]2[C@H](CC[C@@H]3[C@@H]2CC[C@]2(C)[C@@H]([C@@H](Nc4ccc(C#N)cc4C)C(F)(F)F)CC[C@@H]32)C1 [Example 488, 4-(((R)-1-((3R,5R,8R,9R,10S,13S,14S,17S)-3-(ethoxymethyl)-3-hydroxy-13-methylhexadecahydro-1H-cyclopenta[a]phenanthren-17-yl)-2,2,2-trifluoroethyl)amino)-3-methylbenzonitrile]
The IC50 of the first is lower: 100 to 1000 nM for the first, 1000 to 10000 nM for the second.
